Data as given in ChEMBL document CHEMBL5528053, “Discovery of Novel Isoquinoline Analogues as Dual Tubulin Polymerization/V-ATPase Inhibitors with Immunogenic Cell Death Induction” (J Med Chem, 2024).
pIC50: −log10 of the molar value. Active and inactive are the calls of the source. No cut-off for these calls is given here.

What was measured:
[1] = Toxicity in ICR mouse assessed as effect on ALT level at 10 mg/kg, ip measured for 14 days; format: organism-based; conditions: in vivo, 336 h, time 14 day
PC-3 [2] = assay: Upregulation of detyrosinated-alpha tubulin expression in human PC-3 cells incubated for 24 hrs by Western blot analysis; format: functional, cell-based; conditions: dose 50-200 nM
PC-3 [3] = assay: Induction of cell cycle arrest in human PC-3 cells assessed as accumulation of cells at S phase at 200 nM incubated for 24 hrs by flow cytometry analysis (reference value: 31.3%); format: functional
[4] = Antitumor activity against mouse RM1 cells homografted in C57BL/6 mouse model assessed as tumor growth inhibition at 5 mg/kg, iv administered every two days for 14 days by vernier caliper based analysis relative to control; format: functional; conditions: RM1, 336 h, time 14 day, read-out: TGI
PC-3 [5] = assay: Inhibition of V-ATPase activity in human PC-3 cells at 100 nM measured after 24 hrs by colorimetric assay relative to control; format: cell-based
PC-3 [6] = assay: Induction of cell cycle arrest in human PC-3 cells assessed as reduction in cyclin B1 at 50 to 200 nM incubated for 24 hrs by DAPI staining based analysis; format: functional; conditions: dose 50-200 nM
Tubulin (Homo sapiens) = Tubulin (Homo sapiens) (UniProt P68371+Q9H4B7+P0DPH7+P68366+Q13509+Q71U36+P04350+Q3ZCM7+P07437+P68363+Q9BQE3+Q6PEY2+Q13885+Q9BVA1+Q9BUF5); assay: Inhibition of tubulin polymerization (unknown origin) assessed as reduction in intracellular AC-alpha-tubulin at 50 to 200 nM measured for 6 hrs by […] Western blot analysis; format: cell-based; conditions: PC-3, dose 50-200 nM
PC-3 [7] = assay: Inhibition of V-ATPase activity in lysosomes of human PC-3 cells assessed as decrease in fluorescence at 50 to 200 nM incubated for 24 hrs by Lyso tracker red staining based inverted fluorescent microscopic analysis; format: subcellular; conditions: Lysosome, dose 50-200 nM
PC-3 [8] = assay: Induction of cell cycle arrest in human PC-3 cells assessed as accumulation of cells at G2/M phase at 200 nM incubated for 24 hrs by flow cytometry analysis (reference value: 19.5%); format: functional
PC-3 [9] = assay: Induction of cell cycle arrest in human PC-3 cells assessed as increase in histone H3at Ser10 residues at 50 to 200 nM incubated for 24 hrs by DAPI staining based analysis; format: functional; conditions: dose 50-200 nM
[10] = Toxicity in ICR mouse assessed as effect on BUN level at 10 mg/kg, ip measured for 14 days; format: organism-based; conditions: in vivo, 336 h, time 14 day
[11] = Toxicity in ICR mouse assessed as effect on kidney at 10 mg/kg, ip measured for 14 days by H and E staining based analysis; format: organism-based; conditions: in vivo, 336 h, time 14 day
PC-3 [12] = assay: Induction of cell cycle arrest in human PC-3 cells assessed as accumulation of cells at S phase at 100 nM incubated for 24 hrs by flow cytometry analysis (reference value: 31.3%); format: functional
[13] = Antitumor immunity against mouse RM1 cells homografted in C57BL/6 mouse model assessed as increase in tumor infiltrating lymphocytes at 5 mg/kg, iv administered every two days for 14 days by flow cytometry analysis (reference value: 5.26%); format: functional; conditions: time 14 day
PC-3 [14] = assay: Induction of cell cycle arrest in human PC-3 cells assessed as accumulation of cells at G1 phase at 200 nM incubated for 24 hrs by flow cytometry analysis (reference value: 49.4%); format: functional
PC-3 [15] = assay: Induction of cell cycle arrest in human PC-3 cells assessed as accumulation of cells at G1 phase at 50 nM incubated for 24 hrs by flow cytometry analysis (reference value: 49.4%); format: functional
PC-3 [16] = assay: Induction of immunogenic cell death in human PC-3 cells assessed as increase in HMGB1 release from nuclei at 50 to 200 nM measured after 24 hrs by DAPI staining based analysis; format: functional; conditions: dose 50-200 nM
HUVEC = assay: Disruption of vasculature in HUVEC cells assessed as interruption of tubelike network formation incubated for 6 hrs by inverted fluorescence microscope analysis; format: functional, cell-based; conditions: Homo sapiens, dose 50-200 nM
PC-3 [17] = assay: Induction of immunogenic cell death in human PC-3 cells assessed as increase in CRT translocation to cell surface at 200 nM measured after 12 hrs in presence of TUDCA by DAPI staining based analysis; format: functional
PC-3 [18] = assay: Induction of cell cycle arrest in human PC-3 cells assessed as accumulation of cells at G2/M phase at 100 nM incubated for 24 hrs by flow cytometry analysis (reference value: 19.5%); format: functional
PC-3 [19] = assay: Induction of apoptosis in human PC-3 cells assessed as upregulation of cleaved caspase-3 level at 50 to 200 nM incubated for 24 hrs by Western blot analysis; format: functional, cell-based; conditions: dose 50-200 nM
PC-3 [20] = assay: Upregulation of intracellular eIF2alpha expression at […] residues in human PC-3 cells incubated for 24 hrs by DAPI staining based analysis; format: functional, cell-based; conditions: dose 50-200 nM
PC-3 [21] = assay: Induction of immunogenic cell death in human PC-3 cells assessed as increase in CRT translocation to cell surface at 200 nM measured after 12 hrs in presence of NAC by DAPI staining based analysis; format: functional
PC-3 [22] = assay: Induction of endoplasmic reticulum (ER) stress in human PC-3 cells assessed as upregulation of CHOP phosphorylation level at 50 to 200 nM measured after 24 hrs by Western blot analysis; format: functional, cell-based; conditions: dose 50-200 nM
PC-3 [23] = assay: Induction of apoptosis in human PC-3 cells assessed as downregulation of bcl-2 level at 50 to 200 nM incubated for 24 hrs by Western blot analysis; format: functional, cell-based; conditions: dose 50-200 nM
PC-3 [24] = assay: Inhibition of V-ATPase activity in human PC-3 cells at 200 nM measured after 24 hrs by colorimetric assay relative to control; format: cell-based
PC-3 [25] = assay: Induction of cell cycle arrest in human PC-3 cells assessed as reduction in cdc25c phosphorylation at ser216 residue at 50 to 200 nM incubated for 24 hrs by DAPI staining based analysis; format: functional; conditions: dose 50-200 nM
PC-3 [26] = assay: Induction of cell cycle arrest in human PC-3 cells assessed as accumulation of cells at G2/M phase at 50 nM incubated for 24 hrs by flow cytometry analysis (reference value: 19.5%); format: functional
MDA-MB-231 = assay: Antiproliferative activity against human MDA-MB-231 cells assessed as inhibition of cell growth after 72 hrs by MTT assay; format: functional, cell-based; conditions: MDA-MB-231, 72 h
PC-3 [27] = assay: Antiproliferative activity against human PC-3 cells assessed as inhibition of cell growth after 72 hrs by MTT assay; format: functional, cell-based; conditions: PC-3, 72 h
PC-3 [28] = assay: Induction of apoptosis in human PC-3 cells assessed as increase in ADP-ribose level at 50 to 200 nM incubated for 24 hrs by Western blot analysis; format: functional, cell-based; conditions: dose 50-200 nM
[29] = Toxicity in ICR mouse assessed as effect on LDH level at 10 mg/kg, ip measured for 14 days; format: organism-based; conditions: in vivo, 336 h, time 14 day
[30] = Antitumor immunity against mouse RM1 cells homografted in C57BL/6 mouse model assessed as increase in tumor infiltrating helper T lymphocytes at 5 mg/kg, iv administered every two days for 14 days by flow cytometry analysis (reference value: 6.59%); format: functional; conditions: time 14 day
PC-3 [31] = assay: Induction of apoptosis in human PC-3 cells assessed as viable cells at 50 nM measured after 24 hrs by annexin V-FITC and PI staining based flow cytometry analysis (reference value: 90.6%); format: functional; conditions: read-out: Activity

Q: Which Activity [1] does the source give for `COc1cc(-c2nc(C(N)=O)cc3cc4c(cc23)OCCO4)cc(Br)c1OC` here?
A: The Activity was “Non-Toxic”.

Q: What about the Activity (PC-3 [2]) of the same compound?
A: Its Activity is “Dose-Dependent Effect”.

Q: What about the Activity (PC-3 [3]) of the same compound?
A: Its Activity is 17.1%.

Q: What about the inhibition in vivo at 5 mg/kg [4] of the same compound?
A: Its inhibition in vivo at 5 mg/kg is 61.6%.

Q: And the inhibition (PC-3 [5])?
A: The inhibition was 26.2%.

Q: And the Activity (PC-3 [6])?
A: Its Activity is “Active”.

Q: And the inhibition (Tubulin (Homo sapiens))?
A: Its inhibition is “Active”.

Q: What about the inhibition (PC-3 [7]) of the same compound?
A: Its inhibition is “Active”.

Q: And the Activity (PC-3 [8])?
A: Its Activity is 65.8%.

Q: And the Activity (PC-3 [9])?
A: Its Activity is “Active”.

Q: And the Activity [10]?
A: Its Activity is “Non-Toxic”.

Q: What about the Activity [11] of the same compound?
A: The Activity was “Non-Toxic”.

Q: What about the Activity (PC-3 [12]) of the same compound?
A: The Activity was 22.3%.

Q: What about the Activity [13] of the same compound?
A: Its Activity is 7.01%.

Q: What about the Activity (PC-3 [14]) of the same compound?
A: The Activity was 17.9%.

Q: And the Activity (PC-3 [15])?
A: The Activity was 39.8%.

Q: What about the Activity (PC-3 [16]) of the same compound?
A: The Activity was “Active”.

Q: What about the Activity (HUVEC) of the same compound?
A: Its Activity is “Active”.

Q: What about the Activity (PC-3 [17]) of the same compound?
A: The Activity was “inactive”.

Q: And the Activity (PC-3 [18])?
A: The Activity was 42.8%.

Q: And the Activity (PC-3 [19])?
A: Its Activity is “Active”.

Q: And the Activity (PC-3 [20])?
A: The Activity was “Dose-Dependent Effect”.

Q: What about the Activity (PC-3 [21]) of the same compound?
A: The Activity was “inactive”.

Q: What about the Activity (PC-3 [22]) of the same compound?
A: The Activity was “Active”.

Q: What about the Activity (PC-3 [23]) of the same compound?
A: The Activity was “Active”.

Q: And the inhibition (PC-3 [24])?
A: The inhibition was 36.7%.

Q: What about the Activity (PC-3 [25]) of the same compound?
A: Its Activity is “Active”.

Q: What about the Activity (PC-3 [26]) of the same compound?
A: Its Activity is 30.9%.

Q: What about the pIC50 (MDA-MB-231) of the same compound?
A: Its pIC50 is 6.89.

Q: And the pIC50 (PC-3 [27])?
A: Its pIC50 is 7.22.

Q: What about the Activity (PC-3 [28]) of the same compound?
A: Its Activity is “Active”.

Q: And the Activity [29]?
A: The Activity was “Non-Toxic”.

Q: What about the Activity [30] of the same compound?
A: Its Activity is 10.9%.

Q: What about the viability at 0.05 µM (PC-3 [31]) of the same compound?
A: The viability at 0.05 µM was 87.6%.
